Source: article doi:10.1101/2023.11.24.568596v1 (biorxiv, 2023)

Key:
Details in all cases: binder
MST1 = biological target: T1, MST1 (Homo sapiens, UniProt Q13043)
T1 sequence (Q13043 1-487): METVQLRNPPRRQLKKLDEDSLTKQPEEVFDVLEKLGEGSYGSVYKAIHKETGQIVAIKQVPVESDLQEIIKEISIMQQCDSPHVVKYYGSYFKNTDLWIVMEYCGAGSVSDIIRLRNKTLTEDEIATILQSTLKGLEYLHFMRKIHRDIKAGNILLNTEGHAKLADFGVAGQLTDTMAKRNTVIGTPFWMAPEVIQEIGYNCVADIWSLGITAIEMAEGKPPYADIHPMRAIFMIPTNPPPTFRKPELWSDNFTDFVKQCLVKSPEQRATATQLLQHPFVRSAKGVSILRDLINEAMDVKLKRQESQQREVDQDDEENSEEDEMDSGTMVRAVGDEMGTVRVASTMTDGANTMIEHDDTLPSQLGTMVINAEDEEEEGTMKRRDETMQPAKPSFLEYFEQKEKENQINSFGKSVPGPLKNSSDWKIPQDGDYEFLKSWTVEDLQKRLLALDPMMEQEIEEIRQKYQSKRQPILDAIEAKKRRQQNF

MST3 = MST3 (Homo sapiens, UniProt Q9Y6E0)
MST3, sequence (Q9Y6E0 whole entry): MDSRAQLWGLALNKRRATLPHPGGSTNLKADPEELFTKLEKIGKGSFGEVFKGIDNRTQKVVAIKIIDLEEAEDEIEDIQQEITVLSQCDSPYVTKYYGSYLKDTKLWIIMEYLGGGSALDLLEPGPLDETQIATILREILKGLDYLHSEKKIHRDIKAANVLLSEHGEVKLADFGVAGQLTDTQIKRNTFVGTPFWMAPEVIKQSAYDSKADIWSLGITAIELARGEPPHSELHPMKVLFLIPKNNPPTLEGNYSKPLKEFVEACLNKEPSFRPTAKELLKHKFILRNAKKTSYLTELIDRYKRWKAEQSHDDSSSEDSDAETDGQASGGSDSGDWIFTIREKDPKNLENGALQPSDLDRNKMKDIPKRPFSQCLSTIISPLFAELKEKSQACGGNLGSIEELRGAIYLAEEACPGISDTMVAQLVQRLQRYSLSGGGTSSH

PAK1 = PAK1 (Homo sapiens, UniProt Q13153)
PAK1, sequence (Q13153 whole entry): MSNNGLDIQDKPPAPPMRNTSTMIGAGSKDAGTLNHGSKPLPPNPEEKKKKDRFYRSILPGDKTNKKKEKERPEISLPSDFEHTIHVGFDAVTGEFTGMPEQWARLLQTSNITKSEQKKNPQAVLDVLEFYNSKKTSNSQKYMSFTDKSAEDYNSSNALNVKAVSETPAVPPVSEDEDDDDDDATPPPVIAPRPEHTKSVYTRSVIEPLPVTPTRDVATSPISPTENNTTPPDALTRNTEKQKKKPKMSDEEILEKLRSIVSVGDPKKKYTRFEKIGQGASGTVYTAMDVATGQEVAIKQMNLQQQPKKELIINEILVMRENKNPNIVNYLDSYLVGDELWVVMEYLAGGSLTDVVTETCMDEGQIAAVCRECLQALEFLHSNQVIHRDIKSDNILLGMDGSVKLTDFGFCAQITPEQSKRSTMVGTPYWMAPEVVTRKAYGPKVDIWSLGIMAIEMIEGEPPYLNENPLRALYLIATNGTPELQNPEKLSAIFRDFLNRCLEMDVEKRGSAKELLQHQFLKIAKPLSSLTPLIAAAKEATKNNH

MST2 = biological target: T2, MST2 (Homo sapiens, UniProt Q13188)
T2 sequence (Q13188 1-491): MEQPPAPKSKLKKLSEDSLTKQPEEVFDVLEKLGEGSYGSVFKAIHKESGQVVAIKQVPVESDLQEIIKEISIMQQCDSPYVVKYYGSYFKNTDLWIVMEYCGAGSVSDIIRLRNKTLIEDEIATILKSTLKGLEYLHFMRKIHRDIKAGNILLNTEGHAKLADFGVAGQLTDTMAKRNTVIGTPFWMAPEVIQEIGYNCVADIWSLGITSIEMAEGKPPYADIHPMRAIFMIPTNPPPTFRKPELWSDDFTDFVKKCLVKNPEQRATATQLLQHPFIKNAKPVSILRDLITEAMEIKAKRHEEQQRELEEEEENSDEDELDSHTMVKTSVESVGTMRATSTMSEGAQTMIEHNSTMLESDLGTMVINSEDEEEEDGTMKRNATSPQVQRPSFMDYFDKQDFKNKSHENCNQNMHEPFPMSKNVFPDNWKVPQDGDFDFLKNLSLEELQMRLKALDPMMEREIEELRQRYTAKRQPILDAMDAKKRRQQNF

EphB1 = biological target: T3, EphB1 (Homo sapiens, UniProt P54762)
T3 sequence (P54762 1-984): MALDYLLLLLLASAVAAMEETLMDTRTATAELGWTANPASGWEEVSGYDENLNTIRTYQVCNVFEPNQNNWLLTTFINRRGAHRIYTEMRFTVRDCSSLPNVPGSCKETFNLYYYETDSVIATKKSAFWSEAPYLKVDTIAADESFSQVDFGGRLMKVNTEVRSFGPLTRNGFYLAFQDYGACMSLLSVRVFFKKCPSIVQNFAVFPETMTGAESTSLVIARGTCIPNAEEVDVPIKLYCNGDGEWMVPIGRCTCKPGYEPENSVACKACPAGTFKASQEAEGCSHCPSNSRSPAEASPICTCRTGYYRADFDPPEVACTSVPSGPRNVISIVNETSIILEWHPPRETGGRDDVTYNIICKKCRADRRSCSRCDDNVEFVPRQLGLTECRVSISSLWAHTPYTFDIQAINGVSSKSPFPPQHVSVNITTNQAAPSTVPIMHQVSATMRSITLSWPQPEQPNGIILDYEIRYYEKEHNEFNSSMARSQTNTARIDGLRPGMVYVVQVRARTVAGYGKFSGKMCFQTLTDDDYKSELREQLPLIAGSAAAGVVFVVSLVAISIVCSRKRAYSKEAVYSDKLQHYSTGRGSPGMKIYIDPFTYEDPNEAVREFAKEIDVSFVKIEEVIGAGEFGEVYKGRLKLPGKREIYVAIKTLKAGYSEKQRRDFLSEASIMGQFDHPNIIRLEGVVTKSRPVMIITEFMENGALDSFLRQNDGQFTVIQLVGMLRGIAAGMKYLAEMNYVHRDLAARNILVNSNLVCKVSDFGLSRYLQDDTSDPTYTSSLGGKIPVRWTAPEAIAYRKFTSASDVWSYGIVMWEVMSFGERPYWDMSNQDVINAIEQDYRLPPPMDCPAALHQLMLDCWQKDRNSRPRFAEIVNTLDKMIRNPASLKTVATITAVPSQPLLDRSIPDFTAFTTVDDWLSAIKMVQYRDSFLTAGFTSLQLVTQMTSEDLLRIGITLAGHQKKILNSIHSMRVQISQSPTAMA

CK2a1 = CK2a1 (Homo sapiens, UniProt P68400)
CK2a1, sequence (P68400 whole entry): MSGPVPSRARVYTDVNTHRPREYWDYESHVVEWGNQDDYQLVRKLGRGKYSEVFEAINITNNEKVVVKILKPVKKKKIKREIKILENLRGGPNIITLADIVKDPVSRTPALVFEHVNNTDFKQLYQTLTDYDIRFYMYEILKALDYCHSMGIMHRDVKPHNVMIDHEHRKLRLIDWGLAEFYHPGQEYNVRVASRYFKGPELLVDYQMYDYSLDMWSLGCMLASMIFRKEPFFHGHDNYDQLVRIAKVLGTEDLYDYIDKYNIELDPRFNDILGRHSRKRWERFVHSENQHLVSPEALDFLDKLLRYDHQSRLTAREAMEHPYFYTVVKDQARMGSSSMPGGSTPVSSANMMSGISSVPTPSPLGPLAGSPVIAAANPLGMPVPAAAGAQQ

CLK1 = CLK1 (Homo sapiens, UniProt P49759)
CLK1, sequence (P49759 whole entry): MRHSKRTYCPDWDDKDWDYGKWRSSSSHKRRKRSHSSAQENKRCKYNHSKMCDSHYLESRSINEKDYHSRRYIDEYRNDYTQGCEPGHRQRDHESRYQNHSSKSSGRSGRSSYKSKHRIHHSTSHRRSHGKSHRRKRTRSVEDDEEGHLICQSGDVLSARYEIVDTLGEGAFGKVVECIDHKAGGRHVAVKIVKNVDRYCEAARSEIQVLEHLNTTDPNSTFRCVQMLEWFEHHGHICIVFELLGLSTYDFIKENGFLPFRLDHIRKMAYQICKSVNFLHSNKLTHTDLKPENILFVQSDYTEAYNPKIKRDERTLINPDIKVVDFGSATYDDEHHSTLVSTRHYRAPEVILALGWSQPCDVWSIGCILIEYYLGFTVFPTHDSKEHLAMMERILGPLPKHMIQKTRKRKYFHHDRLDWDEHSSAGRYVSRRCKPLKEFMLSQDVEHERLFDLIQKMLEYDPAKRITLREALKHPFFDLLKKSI

CaMK1g = CaMK1g (Homo sapiens, UniProt Q96NX5)
CaMK1g, sequence (Q96NX5 whole entry): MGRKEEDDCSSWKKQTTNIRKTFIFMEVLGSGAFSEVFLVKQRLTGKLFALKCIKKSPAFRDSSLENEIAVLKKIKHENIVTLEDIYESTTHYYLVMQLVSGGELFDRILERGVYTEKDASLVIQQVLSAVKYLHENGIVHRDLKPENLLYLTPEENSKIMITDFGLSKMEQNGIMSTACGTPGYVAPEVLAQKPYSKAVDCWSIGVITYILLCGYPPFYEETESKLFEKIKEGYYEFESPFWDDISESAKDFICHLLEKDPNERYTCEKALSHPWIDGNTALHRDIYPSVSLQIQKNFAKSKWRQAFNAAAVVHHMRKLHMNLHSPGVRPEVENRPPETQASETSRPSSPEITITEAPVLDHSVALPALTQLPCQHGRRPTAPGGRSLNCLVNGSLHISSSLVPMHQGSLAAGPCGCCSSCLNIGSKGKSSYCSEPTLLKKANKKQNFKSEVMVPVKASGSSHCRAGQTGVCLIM

CNc1ncc2cc(-c3ccc(-c4cccc(C)n4)cc3Cl)c(=O)n(CCCCN)c2n1 [compound 20, MRLW5]
dTm MST1 (MST1): 5.6 °C
dTm MST3 (MST3): 11.7 °C
dTm PAK1 (PAK1): 6.5 °C
dTm MST2 (MST2): 7.9 °C

CNc1ncc2cc(-c3ccc(-c4cccc(C)n4)cc3Cl)c(=O)n(CCC3CCNCC3)c2n1 [compound 22, 6-(2-Chloro-4-(6-methylpyridin-2-yl)phenyl)-2-(methylamino)-8-(2-(piperidin-4-yl)ethyl)pyrido[2,3-d]pyrimidin-7(8H)-one]
ΔTm 22 (EphB1): 2.6 °C
dTm MST1 (MST1): 6.0 °C
dTm MST3 (MST3): 10.5 °C
dTm PAK1 (PAK1): 8.6 °C
dTm MST2 (MST2): 8.0 °C

CNc1ncc2cc(-c3ccc(-c4cccc(C)n4)cc3Cl)c(=O)n(C[C@H]3CC[C@H](N)CC3)c2n1 [compound 23, 23]
ΔTm 23 (EphB1): 3.4 °C
dTm MST1 (MST1): 7.9 °C
dTm MST3 (MST3): 10.8 °C
dTm PAK1 (PAK1): 8.4 °C
dTm MST2 (MST2): 10.8 °C

Cc1cccc(-c2ccc(-c3cc4cnc(NC(CO)CO)nc4n(CCCCN)c3=O)c(Cl)c2)n1 [compound 24, 8-(4-Aminobutyl)-6-(2-chloro-4-(6-methylpyridin-2-yl)phenyl)-2-((1,3-dihydroxypropan-2-yl)amino)pyrido[2,3-d]pyrimidin-7(8H)-one]
ΔTm MR24 (24) (EphB1): 0.2 °C

Cc1cccc(-c2ccc(-c3cc4cnc(NCCCc5ccc(N)cc5)nc4n(CCCCN)c3=O)c(Cl)c2)n1 [compound 25, 8-(4-Aminobutyl)-2-((3-(4-aminophenyl)propyl)amino)-6-(2-chloro-4-(6-methylpyridin-2-yl)phenyl)pyrido[2,3-d]pyrimidin-7(8H)-one]
ΔTm 25 (EphB1): 3.0 °C

Cc1cccc(-c2ccc(-c3cc4cnc(NCCCN5CCOCC5)nc4n(CCCCN)c3=O)c(Cl)c2)n1 [compound 26, MR26]
ΔTm MR26 (26) (EphB1): 3.7 °C

Cc1cccc(-c2ccc(-c3cc4cnc(Nc5ccc(F)c(CO)c5)nc4n(CCCCN)c3=O)c(Cl)c2)n1 [compound 33, 8-(4-Aminobutyl)-6-(2-chloro-4-(6-methylpyridin-2-yl)phenyl)-2-((4-fluoro-3-(hydroxymethyl)phenyl)amino)pyrido[2,3-d]pyrimidin-7(8H)-one]
dTm 33 (CK2a1): -0.4 °C
dTm 33 (CLK1): -0.2 °C
dTm 33 (CaMK1g): 6.7 °C

COc1ccc(O)c(Nc2ncc3cc(-c4ccc(-c5cccc(C)n5)cc4Cl)c(=O)n(CCCCN)c3n2)c1 [compound 34, 8-(4-Aminobutyl)-6-(2-chloro-4-(6-methylpyridin-2-yl)phenyl)-2-((2-hydroxy-5-methoxy-phenyl)amino)pyrido[2,3-d]pyrimidin-7(8H)-one]
dTm 34 (CK2a1): 0.5 °C
dTm 34 (CLK1): -0.3 °C
dTm 34 (CaMK1g): 3.8 °C

COc1cc(N2CCOCC2)ccc1Nc1ncc2cc(-c3ccc(-c4cccc(C)n4)cc3Cl)c(=O)n(CCCCN)c2n1 [compound 35, 8-(4-Aminobutyl)-6-(2-chloro-4-(6-methylpyridin-2-yl)phenyl)-2-((2-methoxy-4-morpholino-phenyl)amino)pyrido[2,3-d]pyrimidin-7(8H)-one]
dTm 35 (CK2a1): -0.1 °C
dTm 35 (CLK1): -1.6 °C
dTm 35 (CaMK1g): 7.1 °C

COc1cc(N2CCN(C)CC2)ccc1Nc1ncc2cc(-c3ccc(-c4cccc(C)n4)cc3Cl)c(=O)n(CCCCN)c2n1 [compound 36, 8-(4-Aminobutyl)-6-(2-chloro-4-(6-methylpyridin-2-yl)phenyl)-2-((2-methoxy-4-(4-methylpiperazin-1-yl)phenyl)amino)pyrido[2,3-d]pyrimidin-7(8H)-one]
dTm 36 (CK2a1): 0.2 °C
dTm 36 (CLK1): -0.9 °C
dTm 36 (CaMK1g): 7.0 °C
